Like-named read-outs stand apart in the source and are kept apart here.
What was measured:
[1] = tested on: cancer cells; settings: Fingrut et al., 2005; cited from earlier work
[2] = tested on: squamous cell carcinoma cells (cell line A431); assay: Proliferation assay using XTT reagent, squamous cell carcinoma cells; format: cell-based; settings: A431, three days, read-out: IC50 inhibition of proliferation of squamous cell carcinoma cells
Experimental: (§1) The effect of methyl jasmonate and compound 9 and 9A on the proliferation of squamous cell carcinoma cells (cell line A431) and basal cell carcinoma cells (cell line TE 354.T) was determined.
(§2) Cells were treated with various concentrations of methyl jasmonate and the compounds 9 and 9A for three days followed by a proliferation assay using XTT reagent (sodium 2,3,-bis(2-methoxy-4-nitro-5-sulfophenyl)-5-[(phenylamino)-carbonyl]-2H-tetrazolium inner salt).

[3] = tested on: lymphomas; settings: U.S. Pat. No. 6,469,061; cited from earlier work
[4] = tested on: basal cell carcinoma cells (cell line TE 354.T); assay: Proliferation assay using XTT reagent, basal cell carcinoma cells; format: cell-based; settings: three days, read-out: IC50 inhibition of proliferation of basal cell carcinoma cells
Experimental: as §1, §2

[5] = tested on: CT26 murine colon carcinoma cell-line; assay: Cytotoxicity, XTT Cell Proliferation Kit assay, CT26; format: cell-based; settings: Mus musculus, 24 hours, read-out: IC50 in CT-26
Experimental: (§3) Cell densities were as follows: Molt-4 (at 2.5×10^4 cells in 100 μl per well), CT26 (at 5×10^3 cells in 100 μl, per well), MCF7 (at 5×10^3 cells in 100 μL per well) and PBL (at 1.5×10^5 cells in 100 μl per well) seeded in 96-well plates. Adherent cells (CT26 and MCF7) were allowed to adhere over-night.
(§4) Jasmonate-derivatives were added at concentration ranging from 0.005-0.5 mM for 24 hours. Each experimental point was performed in triplicates. Untreated cells were used as control. […] Dilutions were performed in culture medium and ethanol so that the final concentration of ethanol in each well was 0.6%.
(§5) Optical density representing viable cells was determined using the XTT Cell Proliferation Kit assay (Biological industries, Beit-Haemek, Israel).
(§6) Percentage of Optical density is directly proportional to the number of living cells in culture. Cytotoxicity (%) was calculated in the following way: [(OD of control cells−OD of drug-treated cells)/OD of control cells]×100.

[6] = tested on: MCF7 human breast adenocarcinoma cell-line; assay: Cytotoxicity, XTT Cell Proliferation Kit assay, MCF7; format: cell-based; settings: 24 hours, read-out: IC50 in MCF-7
Experimental: as §3, §4, §5, §6

[7] = tested on: normal lymphocytes (PBL) from healthy donors stimulated with PHA and TPA; assay: Cytotoxicity, XTT assay, normal lymphocytes (PBL); format: cell-based; settings: 24 hours; for IC50: Lymphocyte, XTT, PBL pre-incubated with PHA and TPA; for Cytotoxic effect on normal lymphocytes (FIG. 1): PBL, 0.005-0.5 mM
Experimental: Mononuclear cells were isolated from peripheral blood of healthy donors by ficoll-hypaque density gradient centrifugation. The mononuclear cells were allowed to adhere to plastic dishes to remove macrophages. The non-adherent peripheral blood lymphocytes (PBL) were pre-incubated with 0.8 μg/mL PHA and 5 ng/mL TPA for 24 hours and then used in further experiments.
as §3, §4, §5, §6
(§7) Mononuclear cells were isolated from peripheral blood of healthy donors and treated as described above. The non-adherent PBL were pre-incubated with PHA and TPA as described above. Molt-4 and PBL cells were seeded in 96-well plates as described above.
(§8) Each experimental point was performed in triplicates. Untreated cells were used as control. […] Optical density and percentage of Cytotoxicity were determined as described above.

[8] = tested on: Molt-4 human acute lymphoblastic leukemia cell-line; assay: Cytotoxicity, XTT Cell Proliferation Kit assay, Molt-4; format: cell-based; settings: 24 hours; for IC50: XTT; for Cytotoxic effect on leukemic cells (FIG. 1): Molt-4, 0.005-0.5 mM
Experimental: as §3, §4, §5, §6, §7, §8

[9] = tested on: CXF 280 colon adeno carcinoma, ud; assay: Clonogenic assay (TCA), CXF 280; format: cell-based; settings: Homo sapiens, CXF 280, Adeno carcinoma, read-out: IC50 colony formation
Experimental: (§9) Cancer cells were taken directly from cancer patients, employing the Tumor-Colony-Assay: Solid human tumor xenografts growing subcutaneously in serial passages in thymus aplastic nude mice were removed and disaggregated to obtain isolated tumor cells. Viable cells were added to culture medium supplemented with agar and plated in 24-multiwell dishes. The test compound was applied in the cultures that were incubated at 37° C. for 6-20 days and monitored for colony growth using an inverted microscope. At the time of maximum colony formation, colonies were counted and 24 hours prior to evaluation, stained with a vital dye. Drug effects were expressed in terms of the percentage of colony formation, obtained by comparison of the mean number of colonies in the treated wells with the mean colony count of untreated controls. IC50 values, being the drug concentrations necessary to inhibit colony formation by 50%, were determined by plotting compound concentration versus relative colony count.

[10] = tested on: LXFS 573 small cell lung carcinoma; assay: Clonogenic assay (TCA), LXFS 573; format: cell-based; settings: Homo sapiens, read-out: IC50 colony formation
Experimental: as §9

[11] = tested on: RXF 423 kidney hypernephroid adeno carcinoma; assay: Clonogenic assay (TCA), RXF 423; format: cell-based; settings: Homo sapiens, RXF 423, Hypernephroid adeno carcinoma, read-out: IC50 colony formation
Experimental: as §9

[12] = tested on: CXF 1299 colon adeno carcinoma; assay: Clonogenic assay (TCA), CXF 1299; format: cell-based; settings: Homo sapiens, CXF 1299, Adeno carcinoma, read-out: IC50 colony formation
Experimental: as §9

[13] = tested on: LXFA 1012 lung, non small, adeno carcinoma, pd; assay: Clonogenic assay (TCA), LXFA 1012; format: cell-based; settings: Homo sapiens, LXFA 1012, Adeno carcinoma, read-out: IC50 colony formation
Experimental: as §9

[14] = tested on: LXFA 749 lung, non small, adeno carcinoma, pd; assay: Clonogenic assay (TCA), LXFA 749; format: cell-based; settings: Homo sapiens, LXFA 749, Adeno carcinoma, read-out: IC50 colony formation
Experimental: as §9

[15] = tested on: CT-26 colon carcinoma cells; assay: ATP levels, CellTiter-Glo Luminescent Cell Viability Assay; format: cell-based, Murine
Experimental: CT-26 cells were exposed to compound 9 for 3 hours and ATP levels were measured using the CellTiter-Glot Luminescent Cell Viability Assay (Promega, Madison, Wis., U.S.A.). […] It thus appears that a drop in cellular energy levels may precipitate the cytotoxic effect of compound 9.

[16] = tested on: B16F10 melanoma cells; assay: Experimental metastasis of B16 melanoma cells to the lungs in vivo; set-up: species or system C57bl mice; settings: 10 mg/kg i.v. once daily, 5 days a week for 3 weeks; lungs weighed after 22 days
Experimental: The experiment was comprised of 3 groups of C57bl mice (12-15 weeks old, n=12), total of 36 all inoculated with B16F10 melanoma cells, 0.1 ml of B16F10 in PBS×1, inoculums of 7×10^5 cells per mouse. Group M1—non treated, Group M2—treated once daily, 5 days a week for 3 weeks with Compound 9 dissolved with surfactants (10 mg/kg, diluted 1:5 with Saline, i.v.), and Group M3—a positive control group treated with Paclitaxel once in 7 days (15 mg/kg, i.v.). After 22 days, mice were sacrificed and lungs were weighed. Lungs with metastases weigh more than normal lungs (which weigh about 200 mg), and a decrease in lung weight in comparison to control tumor-bearing untreated mice signifies an anti-metastatic effect.

[17] = tested on: GXF 214 stomach adeno carcinoma, ud; assay: Clonogenic assay (TCA), GXF 214; format: cell-based; settings: Homo sapiens, GXF 214, Adeno carcinoma, read-out: IC50 colony formation
Experimental: as §9

[18] = tested on: LXFA 1041 lung, non small, adeno carcinoma, md; assay: Clonogenic assay (TCA), LXFA 1041; format: cell-based; settings: Homo sapiens, LXFA 1041, Adeno carcinoma, read-out: IC50 colony formation
Experimental: as §9

[19] = tested on: LXFA 629 lung, non small, adeno carcinoma, pd; assay: Clonogenic assay (TCA), LXFA 629; format: cell-based; settings: Homo sapiens, LXFA 629, Adeno carcinoma, read-out: IC50 colony formation
Experimental: as §9

[20] = tested on: LXFL 430 large cell lung carcinoma, ud; assay: Clonogenic assay (TCA), LXFL 430; format: cell-based; settings: Homo sapiens, non small, read-out: IC50 colony formation
Experimental: as §9

[21] = tested on: RXF 1220 kidney hypernephroma, pd; assay: Clonogenic assay (TCA), RXF 1220; format: cell-based; settings: Homo sapiens, RXF 1220, Hypernephroma, read-out: IC50 colony formation
Experimental: as §9

[22] = tested on: MAXF 857 breast invasive ductal carcinoma; assay: Clonogenic assay (TCA), MAXF 857; format: cell-based; settings: Homo sapiens, MAXF 857, Invasive ductal carcinoma, read-out: IC50 colony formation
Experimental: as §9

[23] = tested on: MAXF 1322 breast papillary adeno carcinoma, pd; assay: Clonogenic assay (TCA), MAXF 1322; format: cell-based; settings: Homo sapiens, MAXF 1322, Papillary adeno carcinoma, read-out: IC50 colony formation
Experimental: as §9

In the case of `CC/C=C\CC1C(=O)CCC1CC(=O)OC` (centres unmarked) [Methyl jasmonate, methyl jasmonate, reference compound], the “Decrease in ATP levels in cancer cells” value [1] is given as “can cause a decrease in ATP levels in cancer cells”, the IC50 ([2]; Homo sapiens, A-431, 72 h) is given as 14 µM and the “Prevention of development of lymphomas in mice” value [3] is given as “effective in preventing development of lymphomas in mice”. For the same compound, the IC50 ([4]; 72 h) was 16 µM.
Work on `CCC(Br)C(Br)CC1C(=O)CCC1CCO` (centres unmarked) [Compound 8] yielded an IC50 [5] of 163 ± 42 µM, an IC50 [6] of 120 ± 60 µM and an IC50 [7] of 60 ± 14 µM. For the same compound, the IC50 ([8]; Homo sapiens, MOLT-4) was 50 ± 28 µM.
Work on `CC/C=C\CC1C(=O)CCC1CC(=O)OC1OC(CO)C(O)C(O)C1O` (centres unmarked) [Compound 11] yielded an IC50 [5] of 237 ± 29 µM, an IC50 [6] of 110 ± 20 µM and an IC50 [7] of 323 ± 211 µM. For the same compound, the “Cytotoxic effect on normal lymphocytes (FIG. 1)” value [7] was “without exerting a substantial effect on normal lymphocytes”, the IC50 ([8]; Homo sapiens, MOLT-4) was 79 ± 6 µM and the “Cytotoxic effect on leukemic cells (FIG. 1)” value [8] was “kill leukemic cells”.
With `CC/C=C\CC1C(=O)CCC1CC(=O)NC(CC(C)C)C(=O)OC` (centres unmarked) [Compound 10] the IC50 [5] was > 500 µM, the IC50 [7] was > 500 µM and the IC50 ([8]; Homo sapiens, MOLT-4) was 243 ± 39 µM.
Work on `CCCCCC1C(=O)CCC1CC(=O)Oc1cccc2cccnc12` (centres unmarked) [Compound 9A] yielded an IC50 [2] of 0.036 µM, an IC50 [4] of 0.116 µM and an IC50 [8] of 10 µM.
With `CC/C=C\CC1C(=O)CCC1CC(=O)Oc1cccc2cccnc12` (centres unmarked) [Compound 9] the IC50 [9] was 5.44 µM, the IC50 [10] was 1.93 µM and the IC50 ([2]; Homo sapiens, A-431, 72 h) was 0.089 µM. It also gave an IC50 [11] of 1.69 µM, an IC50 [12] of 1.12 µM and an IC50 [13] of 1.32 µM. It also gave an IC50 [5] of 29 ± 21 µM, an IC50 ([4]; 72 h) of 0.049 µM and an IC50 [14] of 1.7 µM. The IC50 [6] was 60 ± 14 µM, the “Drop in cellular ATP levels (FIG. 2)” value ([15]; 3 hours exposure, 0.2 or 0.5 mM compound) was “induced a significant drop in cellular ATP levels” and the “Effect of high glucose on the ATP drop (FIG. 2)” value ([15]; 3 hours, high (28 mM) versus low (2 mM) glucose) was “this effect was decreased in the presence of high glucose levels”. For the same compound, the IC50 [7] was 200 ± 85 µM, the “Cytotoxic effect on normal lymphocytes (FIG. 1)” value [7] was “without exerting a substantial effect on normal lymphocytes” and the “Suppression of lung metastasis (lung weight, FIG. 3)” value [16] was “very effective in suppressing lung metastasis”. For the same compound, the IC50 [17] was 1.94 µM, the IC50 [18] was 1.5 µM and the IC50 ([8]; Homo sapiens, MOLT-4) was 12 ± 9 µM. For the same compound, the “Cytotoxic effect on leukemic cells (FIG. 1)” value [8] was “kill leukemic cells”, the IC50 [19] was 1.38 µM and the IC50 [20] was < 1 µM. It also gave an IC50 [21] of 6.32 µM, an IC50 [22] of 1.55 µM and an IC50 [23] of 1.55 µM.
With `CC/C=C\CC1C(=O)CCC1CCOC(C)=O` (centres unmarked) [Compound 2] the IC50 [5] was > 500 µM, the IC50 [6] was > 500 µM and the IC50 [7] was > 500 µM. The IC50 ([8]; Homo sapiens, MOLT-4) was 440 ± 109 µM.
In the case of `CCC1C(CC2C(=O)CCC2CC(=O)OC)C1(Cl)Cl` (centres unmarked) [Compound 7], the IC50 [5] is reported as 393 ± 141 µM, the IC50 [6] is reported as 323 ± 75 µM and the IC50 [7] is reported as 425 ± 21 µM. For the same compound, the IC50 ([8]; Homo sapiens, MOLT-4) was 125 ± 26 µM.
`CCCCCC1C(=O)CCC1CCO[Si](C)(C)C(C)(C)C` (centres unmarked) [Compound 6] gave an IC50 [5] of 263 ± 212 µM, an IC50 [6] of 236 ± 180 µM and an IC50 [7] of 90 ± 14 µM. It also gave an IC50 ([8]; Homo sapiens, MOLT-4) of 56 ± 11 µM.

Source: patent US9284274B2, “Chemical derivatives of jasmonate, pharmaceutical compositions and methods of use thereof” (RAMOT AT TEL-AVIV UNIVERSITY LTD., priority 2005, dated 2016)
